Data set [1] deals with MHC class I expression on COLO 205 cells. The experiment in a line: MHC class I expression on COLO 205 cells, 24 hours, flow cytometry (W6/32). To be noted: for MFI: W6/32 staining; for increase in MHC class I expression: 24 hours, relative to non-treated cells. The protocol: FIG. 2A-2F. […] Cells were treated for 24 hours and cell surface MHC class I expression was measured by flow cytometry.
Cannabigerol was also tested for its capacity to induce MHC class I expression in a human colorectal carcinoma cell line, COLO 205. The cells were treated with either 25 μM or 50 μM cannabigerol for 24 hours. Fluorophor (Alexa Fluor 488)-conjugated W6/32 antibody (Thermo Fisher) was used in a flow cytometry assay to quantitate MHC class I expression. […] Cannabigerol is only one of many cannabinoid-like molecules with potential biopharmaceutical activity. […] COLO 205 cells were treated with up to 40 μM of the cannabinoids 1-5 presented in Tables 1 and 2 and evaluated for cell surface MHC class I expression as described above for cannabigerol.
Background: In flow cytometry, cells or beads pass a laser one at a time.

Data set [2] deals with CD8+ T cells from OT1 mice co-cultured with A9 cells. As to the kind of experiment: OT1 CD8+ T cell proliferation (CFSE) in co-culture with […]-loaded A9 cells. The data set is classed as cell-based, mouse. As to the method:
FIG. 8. A proliferation experiment using CD8^+ T cells from […]-primed OT1 mice in response to […] peptide presented on MHC class I of A9 cells. A9 cells were treated with 0.055 μM of Cannabigerol, 5.832×10^−6 nM of IFN gamma positive control. The negative control is named “CFSE and […] CD8^+ T cells”. T cells were labeled with CFSE proliferation dye, which is reduced within the progeny cells as the generations progress.
FIG. 9 MHC Class I expression of A9 cells associated with CD8^+ T cells from […]-primed OT. A9 cells were treated with 0.055 μM of Cannabigerol, or 5.832×10^4 nM of IFN gamma.
A cytolytic assay was performed as follows. A9 cells (1×10^6) were plated onto a 6 well plate in two mL of RPMI media (Advanced RPMI-1640 Medium (Gibco), 100 U/mL of Penicillin-Streptomycin (P+S) (Thermofisher), 1% L-Glutamine (Gibco), and 10% FBS). A9 cells were treated with either Cannabigerol 0.055 μM, 5.832×10^4 nM IFN gamma, or 1% DMSO vehicle. After 24 hours, […] OVA Peptide ([…]) (Genscript), was added to the A9 cells. Following an additional 24 hours, CD8^+ T cells were collected from OT1 mouse spleens. […] An extra well of untreated A9 cells was counted and used as a standard count. CD8^+ T cells were counted and then treated with CFSE (Biolegend) per manufacture protocol, before being co-cultured with A9 cells to a 1:1 ratio or a 1:5 ratio. […]

Data set [3] has as its system A9 cells, soluble mouse proteins. As to the kind of experiment: Cytokine secretion profile in Cannabigerol treated A9 cells (Proteome Profiler Mouse XL cytokine array). It counts as cell-based. To be noted: 0.055 μM, 48 hours, versus DMSO. The protocol:
FIG. 10A-10E show the cytokines and other markers that have increased or decreased expression after treatment with cannabinoids, as compared to interferon gamma. FIG. 10A) Inflammatory markers; FIG. 10B) Cell growth markers; FIG. 10C) Leukocyte migration markers; FIG. 10D) Cell growth and differentiation markers; FIG. 10E) summary of markers.
Cannabigerol and IFN gamma were dissolved in 1% Dimethyl Sulfoxide (DMSO) (Sigma) in media (1% DMSO). 1×10^6 A9 cells were plated onto a 6 well plate in two mL of DMEM media. Twenty-four hours after seeding, cells were cultured at the optimum concentrations of Cannabigerol 0.055 μM or 5.832×10^−6 nM IFN gamma or 1% DMSO vehicle for 48 hours. Relative expression levels of 111 soluble mouse proteins including cytokines, chemokines and growth factors were evaluated using the Proteome Profiler Mouse XL cytokine array kit (R&D System, ARY028) following the manufacturer's instructions. Spot densities on the array film were detected and quantified using Image J analysis software Image J protein analyzer add-on on a scanned version of the film. Quantification of the spot intensity in the arrays was conducted with background subtraction in ImageJ. To determine fold change, the treatment values of IFN gamma microarrays were divided by the DMSO negative control values of the concurring spots. A value of 1 was subtracted from the absolute value of this fold change, to correct the value of DMSO to “0”. Experiment was done in technical replicates.
There also was an increase in VEGFA. Additionally, there was downregulation of IL-10, and IL-11. There also was a decrease in the production of IGFBP1 and angiopoietin-1,

As a reminder, the fold induction is the ratio of treated to control signal. Higher therefore signals a large rise in signal. For `CCCCCc1cc(O)c(C/C=C(\C)CCC=C(C)C)c(O)c1` [Example 1, 2-[(2E)-3,7-dimethyl-2,6-octadien-1-yl]-5-pentyl-1,3-benzenediol], the MFI in data set [1] (COLO 205, 10 μM) is 125. This molecule gave an MFI in data set [1] (COLO 205, 20 μM) of 130. Besides, the “increase in MHC class I expression” value in data set [1] (COLO 205, 25 μM) is reported as 25%. In addition, the MFI in data set [1] (COLO 205, 30 μM) stood at 130. The molecule further came in with an MFI in data set [1] (COLO 205, 40 μM) of 164. Moreover, the “increase in MHC class I expression” value in data set [1] (COLO 205, 50 μM) is listed as 2 fold. In data set [1] (COLO 205, all treatment conditions (25 μM or 50 μM, 24 hours)), the Cell viability is listed as greater than 95%. In data set [1] (Homo sapiens, COLO 205), the fold induction at 10 µM is 1.03, the fold induction at 20 µM turned out to be 1.07, the fold induction at 30 µM amounted to 1.07 and the fold induction at 40 µM was found to be 1.36. Also, the “MHC class I on the A9 cells associated with the OT1 T cells” value in data set [2] (A9 cells treated with 0.055 μM) is reported as “increase”. For the same molecule, the “proliferation of OT1 CD8+ T cells” value in data set [2] (A9 cells treated with 0.055 μM for 48 hours prior to co-culture) is listed as “increased proliferation”. For the same molecule, in data set [3], the FGF-21 expression entry is “upregulated”, the IL-10 expression entry is given as “downregulation”, the IL-11 expression result is “downregulation” and the IL-13 expression entry is “upregulated”. Further, in data set [3], the VEGFA expression entry is “increase”, the “production of IGFBP1” value is listed as “decrease” and the “production of angiopoietin-1” value is “decrease”.

For the origin of these results see patent US20210038559A1, “CANNABINOIDS AND DERIVATIVES FOR PROMOTING IMMUNOGENICITY OF TUMOR AND INFECTED CELLS” (priority 2018, published 2021).
